Experimental data: patent publication US20250129027A1 (APOGEE PHARMACEUTICALS, INC., priority 2023, published 2025)

Columns and labels:
human recombinant FAAH = human recombinant FAAH (Homo sapiens (Human), UniProt O00519); experiment: In vitro inhibition of FAAH activity (fluorescent inhibitor screening kit, AMC arachidonoyl amide); type: biochemical; conditions: human recombinant FAAH; read-out: Inhibition on FAAH activity (IC50)
How it was run: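 Fluorogenic kit assay: AMC arachidonoyl amide is cleaved by human recombinant FAAH, read at 340-360/450-465 nm. Percent inhibition versus non-treated control; IC50 values derived from multiple compound concentrations where tested.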

human recombinant MAGL = human recombinant MAGL (Homo sapiens (Human), UniProt Q99685); experiment: In vitro inhibition of MAGL activity (inhibitor screening kit, 4-nitrophenylacetate); type: biochemical; conditions: human recombinant MAGL
Chain of human recombinant MAGL (Q99685 whole entry): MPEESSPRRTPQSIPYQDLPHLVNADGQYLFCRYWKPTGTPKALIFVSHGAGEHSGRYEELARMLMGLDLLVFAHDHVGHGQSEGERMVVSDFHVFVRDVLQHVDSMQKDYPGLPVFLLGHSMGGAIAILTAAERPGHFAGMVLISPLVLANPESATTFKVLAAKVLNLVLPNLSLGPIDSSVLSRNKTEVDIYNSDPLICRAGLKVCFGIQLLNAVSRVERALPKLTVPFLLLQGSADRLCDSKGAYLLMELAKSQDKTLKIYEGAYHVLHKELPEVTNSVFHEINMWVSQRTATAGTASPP
Experimental: The inhibitory effect of the compounds on activity of human recombinant MAGL was also studied using a commercial inhibitor screening kit (Cayman Chemicals). In brief, MAGL hydrolyzes 4-nitrophenylacetate resulting in a yellow product, 4-nitrophenol with an absorbance at 405-412 nm, while the inhibitor will inhibit the MAGL activity and thus reduce the yellow signal. The absorbance of the yellow product can be analyzed using the plate reader. Inhibition is calculated as a percentage of the treated sample over the non-treated MAGL control based on the signal values.

Chain of human recombinant FAAH (O00519 whole entry): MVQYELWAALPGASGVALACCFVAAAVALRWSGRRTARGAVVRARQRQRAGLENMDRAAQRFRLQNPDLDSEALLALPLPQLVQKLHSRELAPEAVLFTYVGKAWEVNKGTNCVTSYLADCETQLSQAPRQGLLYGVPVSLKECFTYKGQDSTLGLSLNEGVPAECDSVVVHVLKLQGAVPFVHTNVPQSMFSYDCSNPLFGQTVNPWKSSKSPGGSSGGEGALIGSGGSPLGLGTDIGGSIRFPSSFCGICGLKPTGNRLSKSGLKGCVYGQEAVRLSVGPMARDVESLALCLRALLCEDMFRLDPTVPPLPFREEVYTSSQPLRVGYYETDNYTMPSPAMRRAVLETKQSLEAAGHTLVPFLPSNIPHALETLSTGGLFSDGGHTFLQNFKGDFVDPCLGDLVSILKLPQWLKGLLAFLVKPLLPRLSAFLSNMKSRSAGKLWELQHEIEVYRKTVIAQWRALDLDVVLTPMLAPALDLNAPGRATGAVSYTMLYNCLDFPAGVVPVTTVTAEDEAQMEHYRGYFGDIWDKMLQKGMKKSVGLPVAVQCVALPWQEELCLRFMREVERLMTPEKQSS

SMILES | IC50 (human recombinant FAAH) | IC50 (human recombinant MAGL)
Cc1ccc(-c2cncc(-c3ncco3)c2)cc1OC(=O)NC1CCCCCC1 [Example 97, 2-methyl-5-(5-(oxazol-2-yl)pyridin-3-yl)phenyl cycloheptylcarbamate] | > 1000 nM | > 1000 nM
Cc1ccc(-c2cncc(-c3ncco3)c2)cc1OC(=O)NC1CCCCCCC1 [Example 98, 2-methyl-5-(5-(oxazol-2-yl)pyridin-3-yl)phenyl cyclooctylcarbamate] | > 1000 nM | ~1000 nM
Cc1cc(OC(=O)NCC2CCCCC2)cc(-c2cncc(-c3ncco3)c2)c1 [Example 99, 3-methyl-5-(5-(oxazol-2-yl)pyridin-3-yl)phenyl (cyclohexylmethyl)carbamate] | 100 to 1000 nM | ~10000 nM
Cc1cc(OC(=O)NCc2ccccc2)cc(-c2cncc(-c3ncco3)c2)c1 [Example 100, 3-methyl-5-(5-(oxazol-2-yl)pyridin-3-yl)phenyl benzylcarbamate] | > 1000 nM | > 10000 nM
Cc1cc(OC(=O)NC2CCCCC2)cc(-c2cncc(-c3ncco3)c2)c1 [Example 101, 3-methyl-5-(5-(oxazol-2-yl)pyridin-3-yl)phenyl cyclohexylcarbamate] | > 1000 nM | > 10000 nM
Cc1cc(OC(=O)NC2CCC(C)CC2)cc(-c2cncc(-c3ncco3)c2)c1 (centres unmarked) [Example 102, 3-methyl-5-(5-(oxazol-2-yl)pyridin-3-yl)phenyl (4-methylcyclohexyl)carbamate] | > 1000 nM | > 10000 nM
Cc1cc(OC(=O)NC2CCCCCC2)cc(-c2cncc(-c3ncco3)c2)c1 [Example 103, 3-methyl-5-(5-(oxazol-2-yl)pyridin-3-yl)phenyl cycloheptylcarbamate] | 100 to 1000 nM | ~10000 nM
Cc1cc(OC(=O)NC2CCCCCCC2)cc(-c2cncc(-c3ncco3)c2)c1 [Example 104, 3-methyl-5-(5-(oxazol-2-yl)pyridin-3-yl)phenyl cyclooctylcarbamate] | 100 to 1000 nM | ~10000 nM
CCCCCCCCNC(=O)Oc1cccc(-c2cncc(-c3ccno3)c2)c1 [Example 105, 3-(5-(isoxazol-5-yl)pyridin-3-yl)phenyl octylcarbamate] | 1 to 10 nM | > 10000 nM
O=C(NC1CCCC1)Oc1cccc(-c2cncc(-c3ccno3)c2)c1 [Example 106, 3-(5-(isoxazol-5-yl)pyridin-3-yl)phenyl cyclopentylcarbamate] | 10 to 100 nM | > 10000 nM
O=C(NC1CCCCC1)Oc1cccc(-c2cncc(-c3ccno3)c2)c1 [Example 107, 3-(5-(isoxazol-5-yl)pyridin-3-yl)phenyl cyclohexylcarbamate] | 10 to 100 nM | > 10000 nM
O=C(NC1CCCCCC1)Oc1cccc(-c2cncc(-c3ccno3)c2)c1 [Example 108, 3-(5-(isoxazol-5-yl)pyridin-3-yl)phenyl cycloheptylcarbamate] | 10 to 100 nM | > 1000 nM
CCCCCCCCNC(=O)Oc1ccc(OC)c(-c2cncc(-c3ccno3)c2)c1 [Example 109, 3-(5-(isoxazol-5-yl)pyridin-3-yl)-4-methoxyphenyl octylcarbamate] | 1 to 10 nM | ~10000 nM
COc1ccc(OC(=O)NCC2CCCCC2)cc1-c1cncc(-c2ccno2)c1 [Example 110, 3-(5-(isoxazol-5-yl)pyridin-3-yl)-4-methoxyphenyl (cyclohexylmethyl)carbamate] | 10 to 100 nM | ~10000 nM
COc1ccc(OC(=O)NCc2ccccc2)cc1-c1cncc(-c2ccno2)c1 [Example 111, 3-(5-(isoxazol-5-yl)pyridin-3-yl)-4-methoxyphenyl benzylcarbamate] | 100 to 1000 nM | > 10000 nM
COc1ccc(OC(=O)NC2CCCC2)cc1-c1cncc(-c2ccno2)c1 [Example 112, 3-(5-(isoxazol-5-yl)pyridin-3-yl)-4-methoxyphenyl cyclopentylcarbamate] | ~100 nM | > 10000 nM
COc1ccc(OC(=O)NC2CCCCC2)cc1-c1cncc(-c2ccno2)c1 [Example 113, 3-(5-(isoxazol-5-yl)pyridin-3-yl)-4-methoxyphenyl cyclohexylcarbamate] | ~100 nM | > 10000 nM
CCCCCCCCNC(=O)Oc1cccc(-c2cncc(-c3nccs3)c2)c1 [Example 115] | 1 to 10 nM | ~10000 nM
O=C(NCC1CCCCC1)Oc1cccc(-c2cncc(-c3nccs3)c2)c1 [Example 116, 3-(5-(thiazol-2-yl)pyridin-3-yl)phenyl (cyclohexylmethyl)carbamate] | 10 to 100 nM | ~10000 nM
O=C(NCc1ccccc1)Oc1cccc(-c2cncc(-c3nccs3)c2)c1 [Example 117, 3-(5-(thiazol-2-yl)pyridin-3-yl)phenyl benzylcarbamate] | 100 to 1000 nM | > 10000 nM

SMILES | IC50 (human recombinant FAAH) | IC50 (human recombinant MAGL)
O=C(NC1CCCC1)Oc1cccc(-c2cncc(-c3nccs3)c2)c1 [Example 118, 3-(5-(thiazol-2-yl)pyridin-3-yl)phenyl cyclopentylcarbamate] | ~100 nM | > 10000 nM
O=C(NC1CCCCC1)Oc1cccc(-c2cncc(-c3nccs3)c2)c1 [Example 119, 3-(5-(thiazol-2-yl)pyridin-3-yl)phenyl cyclohexylcarbamate] | 10 to 100 nM | > 10000 nM
O=C(NC1CCCCCC1)Oc1cccc(-c2cncc(-c3nccs3)c2)c1 [Example 120, 3-(5-(thiazol-2-yl)pyridin-3-yl)phenyl cycloheptylcarbamate] | 10 to 100 nM | ~10000 nM
CCCCCCCCNC(=O)Oc1ccc(OC)c(-c2cncc(-c3nccs3)c2)c1 [Example 121, 4-methoxy-3-(5-(thiazol-2-yl)pyridin-3-yl)phenyl octylcarbamate] | 10 to 100 nM | ~10000 nM
COc1ccc(OC(=O)NCC2CCCCC2)cc1-c1cncc(-c2nccs2)c1 [Example 122, 4-methoxy-3-(5-(thiazol-2-yl)pyridin-3-yl)phenyl (cyclohexylmethyl)carbamate] | 100 to 1000 nM | ~10000 nM
COc1ccc(OC(=O)NCc2ccccc2)cc1-c1cncc(-c2nccs2)c1 [Example 123, 4-methoxy-3-(5-(thiazol-2-yl)pyridin-3-yl)phenyl benzylcarbamate] | ~1000 nM | > 10000 nM
COc1ccc(OC(=O)NC2CCCC2)cc1-c1cncc(-c2nccs2)c1 [Example 124, 4-methoxy-3-(5-(thiazol-2-yl)pyridin-3-yl)phenyl cyclopentylcarbamate] | 100 to 1000 nM | > 10000 nM
COc1ccc(OC(=O)NC2CCCCC2)cc1-c1cncc(-c2nccs2)c1 [Example 125, 4-methoxy-3-(5-(thiazol-2-yl)pyridin-3-yl)phenyl cyclohexylcarbamate] | 100 to 1000 nM | > 10000 nM
COc1ccc(OC(=O)NC2CCCCCC2)cc1-c1cncc(-c2nccs2)c1 [Example 126, 4-methoxy-3-(5-(thiazol-2-yl)pyridin-3-yl)phenyl cycloheptylcarbamate] | 100 to 1000 nM | > 10000 nM
O=C(NCC1CCCCC1)Oc1cccc(-c2cncc(-c3nnco3)c2)c1 [Example 134, 3-(5-(1,3,4-oxadiazol-2-yl)pyridin-3-yl)phenyl (cyclohexylmethyl)carbamate] | 10 to 20 nM | > 10000 nM
O=C(NCc1ccccc1)Oc1cccc(-c2cncc(-c3nnco3)c2)c1 [Example 135, 3-(5-(1,3,4-oxadiazol-2-yl)pyridin-3-yl)phenyl benzylcarbamate] | > 100 nM | > 50000 nM
O=C(NCCCc1ccccc1)Oc1cccc(-c2cncc(-c3nnco3)c2)c1 [Example 136, 3-(5-(1,3,4-oxadiazol-2-yl)pyridine-3-yl)phenyl (3-phenylpropyl)carbamate] | 10 to 100 nM | 10000 to 50000 nM
O=C(NC1CCCCCC1)Oc1cccc(-c2cncc(-c3nnco3)c2)c1 [Example 137, 3-(5-(1,3,4-oxadiazol-2-yl)pyridin-3-yl)phenyl cycloheptylcarbamate] | 10 to 20 nM | > 10000 nM
O=C(NC1CCCC1)Oc1cccc(-c2cncc(-c3nnco3)c2)c1 [Example 138, 3-(5-(1,3,4-oxadiazol-2-yl)pyridin-3-yl)phenyl cyclopentylcarbamate] | 10 to 100 nM | > 50000 nM
O=C(NC1CCCCC1)Oc1cccc(-c2cncc(-c3nnco3)c2)c1 [Example 139, 3-(5-(1,3,4-oxadiazol-2-yl)pyridin-3-yl)phenyl cyclohexylcarbamate] | 10 to 100 nM | > 50000 nM
O=C(Nc1cccc2ccccc12)Oc1cccc(-c2cncc(-c3nnco3)c2)c1 [Example 140, 3-(5-(1,3,4-oxadiazol-2-yl)pyridin-3-yl)phenyl naphthalen-1-ylcarbamate] | > 100 nM | > 50000 nM
O=C(Oc1cccc(-c2cncc(-c3nnco3)c2)c1)N1CCCCC1 [Example 141, 3-(5-(1,3,4-oxadiazol-2-yl)pyridin-3-yl)phenyl piperidine-1-carboxylate] | ~1000 nM | > 10000 nM
CN(C(=O)Oc1cccc(-c2cncc(-c3nnco3)c2)c1)C1CCCCC1 [Example 142, 3-(5-(1,3,4-oxadiazol-2-yl)pyridin-3-yl)phenyl cyclohexyl(methyl)carbamate] | 1000 to 10000 nM | > 10000 nM
CC1CCCCN1C(=O)Oc1cccc(-c2cncc(-c3nnco3)c2)c1 (centres unmarked) [Example 143, 3-(5-(1,3,4-oxadiazol-2-yl)pyridin-3-yl)phenyl 2-methylpiperidine-1-carboxylate] | ~10000 nM | > 10000 nM
O=C(Oc1cccc(-c2cncc(-c3nnco3)c2)c1)N1CCCCCC1 [Example 145, 3-(5-(1,3,4-oxadiazol-2-yl)pyridin-3-yl)phenyl azepane-1-carboxylate] | > 1000 nM | > 10000 nM
